Source: US9169223B2, “Functionalised antifouling compounds and use thereof” (Agency for Science, Technology and Research, priority 2010, dated 2015)
In brackets after ≈: the same amount, converted by molar mass.

How the values were obtained:
[1] = tested on: stage II naupliar larvae of the barnacle Amphibalanus amphitrite; test: Toxicity assay with barnacle nauplii; assay type: in vivo; conditions: Amphibalanus amphitrite (barnacle), stage II naupliar larvae, in vivo
Procedure: (§1) Biological assays were conducted with larval barnacles. Barnacles are dominant and tenacious members of marine fouling communities, and often serve as a substrate for less resistant organisms. Therefore, historically they have been used as a model organism for antifouling studies. To determine the biological response of larvae to test compounds, two bioassays were performed: settlement (using settlement stage cyprids), and toxicity (using nauplii). Procedures followed methods standard in the field, which were first described by Rittschof et al. (1992).
(§2) Stock solutions of each compound were made at 50 mg/ml. Pure compounds were diluted in DMSO and sonicated. Stock solutions were stored at −20° C. in 4 ml amber screw cap vials until use. For bioassays, a small amount of stock solution was diluted in 1 μm filtered seawater (in a glass scintillation vial). The solution was then sonicated for 10 minutes. To obtain the desired concentration range, serial dilutions of the test solution were made. As control, a serial dilution of the equivalent amounts of DMSO in seawater was used.
Toxicity assays employed stage II naupliar larvae of the barnacle Amphibalanus amphitrite (previously Balanus amphitrite: Pitombo, 2004). Assay procedures were modified from Rittschof et al. (1992). Adult A. amphitrite were collected from inter-tidal areas near the Kranji mangrove, Singapore. Larval culture was based on Rittschof et al. (1984). Following collection, nauplii were concentrated for use in bioassays by placing a fiber optic light source at one side of the container, and pipetting from the resulting dense cloud of nauplii.
In order to determine LD50 values for each compound, compounds were tested over a range of concentrations between 0-50 μg/ml. For each assay, each compound at each concentration was tested in triplicate with a single batch of nauplii. The overall assay was conducted twice, using two different batches of nauplii. Two controls were run along with each assay (in triplicate): filtered seawater only, and DMSO at […] (since DMSO was used as a solvent for test compounds, this concentration is equivalent to the concentration of DMSO in the highest test compound concentration).
For assays, approximately 20 nauplii (in 50 μl filtered seawater) were added to 1 ml test solution or control, in a 2 ml glass vial (La Pha Pack® PN 11-14-0544). Assays were run for 22-24 hours at 25-27° C. After this time, living and dead nauplii were counted using a Bogorov tray. Nauplii that were approaching death were scored as dead. Data for all assays was combined and LD50 was calculated (where possible) using a probit analysis (Libermann, 1983). If LD50 could not be calculated using probit analysis, values were extrapolated based on plotted data.

barnacle cyprids = test: Settlement assay with barnacle cyprids; assay type: in vivo, Amphibalanus amphitrite
Procedure: as §1, with “nauplii).” for “nauplii). Procedures followed methods standard in the field, which were first described by Rittschof et al. (1992).”
as §2
Nauplii were cultured as described above, and then reared at 25° C. on an algal mixture of 1:1 v/v of Tetraselmis suecica and Chaetoceros muelleri (approximately density 5×10^5 cells per ml). Under these conditions, nauplii typically metamorphose to cyprids in 5 days. Cyprids were aged at 4° C. for 2 days.
Settlement assays were conducted in 7 ml neutral glass vials (Samco® T103/V1; 34×23 mm diameter). For assays, each solution was made at twice the desired final concentration; 0.5 ml of this solution was transferred to vials. To each vial, cyprids were added by transferring 0.5 ml filtered seawater containing 20-40 aged cyprids. As in toxicity assays: each compound at each concentration was run in triplicate with cyprids from a single batch; two controls (filtered seawater and DMSO) were run along with each assays; and the overall assay was conducted twice, using two different batches of cyprids.
Assays were conducted for 24 hours, after which time the number of settled cyprids, the number of free swimming (unsettled) cyprids, and the number of dead cyprids were counted for each vial. Both metamorphosed, juvenile barnacles and cyprids that had committed to settlement (glued themselves to the vial), but had not yet metamorphosed, were counted as ‘settled’. Data was expressed as percent settlement. […] If ED50 could not be calculated using probit analysis, values were extrapolated based on plotted data.

[2] = Observation on standing (note in characterisation); assay type: physicochemical; conditions: HRMS consistent with free alcohol
Procedure: To a round bottomed flask containing DMAP (2 mg) was added a solution of 2-(4-hydroxymethyl)phenyl-1-(piperidin-1-yl)hexanone (30 mg, 0.10 mmol) in dry dichloromethane (2 mL). To the resulting mixture was added dry NEt3 (208 μL, 1.5 mmol) followed by acetic anhydride (100 μL, 1.0 mmol). The resulting mixture was allowed to stir for 3 hours. After this time, the reaction mixture was washed with saturated NaHCO3, water and then brine and the organic phase was dried (Na2SO4) and concentrated under reduced pressure. The title compound was obtained as a colourless oil (20 mg, 60%) following purification by flash column chromatography (50% EtOAc in hexane, Rf=0.7). ^1H NMR (400 MHz, CDCl3) δ 0.86 (t, J=7 Hz, 3H); 1.0-1.2 (2×m, 2H); 1.2-1.5 (multiple signals, 8H); 1.68 (m, 1H); 4.53 (m+s, 4H); 3.33 (m, 1H), 3.39 (m, 1H); 3.49 (m, 1H); 3.60 (m, 1H); 3.70 (t, J=7 Hz, 1H); 5.07 (s, 2H); 7.72 (m, 4H). ^13C NMR (75 MHz, CDCl3) δ14.01, 21.08, 22.72, 24.57, 25.60, 26.20, 30.09, 34.77, 43.20, 46.66, 48.38, 66.07, 128.03, 128.58, 134.24, 141.02, 171.09, 171.17.
To a round bottomed flask containing DMAP (2 mg) was added a solution of 2-(4-hydroxymethyl)phenyl-1-(piperidin-1-yl)hexanone (30 mg, 0.10 mmol) in dry CH2Cl2 (2 mL). To the resulting mixture was added dry NEt3 ([…], 1.5 mmol) followed by acetic anhydride (100 μL, 1.0 mmol). The resulting mixture was allowed to stir for 3 hours. […]

For `CCCCC(C(=O)N1CCCCC1)c1ccc(COC(C)=O)cc1` (stereo not shown) [Compound 16.3, 2-(4-acetoxymethyl)phenyl-1-(piperidin-1-yl)hexanone], the LD50 [1] was greater than 50 µg/mL, the IC50 (barnacle cyprids; Amphibalanus amphitrite, 24 h, anti-settlement, barnacle cyprids, 24 hours, concentration causing 50% reduction in settlement vs controls, read-out: ED50 (the source's name)) was 6.35 µg/mL (≈ 19.2 µM) and the “TR (LD50/ED50)” value (barnacle cyprids; therapeutic ratio, LD50 (nauplii) / ED50 (cyprids)) was greater than 7.87. For the same compound, the stability on standing [2] was “hydrolyses on standing”.
